Experimental data reported in US20110201016A1, “METHOD FOR DETECTING MODULATOR FOR REGULATING ACTIVITY OF CELLULAR COMPONENT IN CELL” (MEDISCOV INC., priority 2010, published 2011).

How the values were obtained:
BLK [1] = molecular target: T1, BLK (Homo sapiens, UniProt P51451, G2A); test: Binding of dasatinib-magnetic substance to EGFP-labelled kinase in cells (magnetic pattern co-localization); assay type: cell-based; details: BLK-EGFP (G2A) in HeLa cells; dasatinib-biotin coated on streptavidin magnetic substance; magnetic field
T1 construct: the ORF without the stop codon was amplified for each gene by PCR; expressed in transfected cells; host or cells: HeLa
T1 sequence (P51451 whole entry G2A): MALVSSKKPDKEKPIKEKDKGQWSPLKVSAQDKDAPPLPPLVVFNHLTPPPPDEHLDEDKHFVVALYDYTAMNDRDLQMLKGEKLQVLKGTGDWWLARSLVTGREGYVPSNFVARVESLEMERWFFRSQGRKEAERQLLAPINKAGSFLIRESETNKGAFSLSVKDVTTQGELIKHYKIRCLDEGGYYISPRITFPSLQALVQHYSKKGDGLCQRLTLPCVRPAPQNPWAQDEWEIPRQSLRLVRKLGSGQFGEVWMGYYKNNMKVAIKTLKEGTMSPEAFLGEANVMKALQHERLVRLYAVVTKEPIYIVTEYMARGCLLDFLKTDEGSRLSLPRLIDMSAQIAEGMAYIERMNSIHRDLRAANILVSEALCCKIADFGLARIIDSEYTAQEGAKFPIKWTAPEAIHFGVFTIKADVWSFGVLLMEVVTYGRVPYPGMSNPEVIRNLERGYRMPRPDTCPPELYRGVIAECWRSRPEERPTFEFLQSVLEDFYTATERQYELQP
Text: (§1) Bioconjug. […] Adv. Mater. […] J. Am. Chem. Soc. 130, 16466].
(§2) J. Am. Chem. Soc. 130, 16466].
(§3) Nature 255: 706]. […] J. Am. Chem. Soc. 130, 16466].
(§4) The result is illustrated in FIG. 2.

LYN [2] = molecular target: T2, LYN (Homo sapiens, UniProt P07948, G2A); test: as above; assay type: cell-based; details: LYN-EGFP (G2A) in HeLa cells; dasatinib-biotin coated on streptavidin magnetic substance; magnetic field
T2 construct: the ORF without the stop codon was amplified for each gene by PCR; expressed in transfected cells; host or cells: HeLa
T2 sequence (P07948 1-491 isoform P07948-2 G2A): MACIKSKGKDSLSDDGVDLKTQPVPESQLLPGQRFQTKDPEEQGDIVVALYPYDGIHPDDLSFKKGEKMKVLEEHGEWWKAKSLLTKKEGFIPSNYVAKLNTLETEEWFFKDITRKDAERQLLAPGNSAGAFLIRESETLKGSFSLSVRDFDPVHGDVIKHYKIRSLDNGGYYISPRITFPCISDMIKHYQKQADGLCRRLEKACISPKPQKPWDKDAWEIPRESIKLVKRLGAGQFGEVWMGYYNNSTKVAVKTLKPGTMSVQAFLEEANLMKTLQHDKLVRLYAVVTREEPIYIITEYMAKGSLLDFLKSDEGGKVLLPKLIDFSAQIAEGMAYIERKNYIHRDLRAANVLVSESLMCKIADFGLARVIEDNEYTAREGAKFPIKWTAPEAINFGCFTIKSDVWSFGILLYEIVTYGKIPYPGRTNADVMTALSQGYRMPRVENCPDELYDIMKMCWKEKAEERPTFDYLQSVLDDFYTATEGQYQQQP
Text: as §1, §2, §3, §4

RIPK2 [3] = molecular target: T3, RIPK2 (Homo sapiens, UniProt O43353); test: as above; assay type: cell-based; details: RIPK2-EGFP in HeLa cells; dasatinib-biotin coated on streptavidin magnetic substance; magnetic field
T3 construct: the ORF without the stop codon was amplified for each gene by PCR; expressed in transfected cells; host or cells: HeLa
T3 sequence (O43353 whole entry): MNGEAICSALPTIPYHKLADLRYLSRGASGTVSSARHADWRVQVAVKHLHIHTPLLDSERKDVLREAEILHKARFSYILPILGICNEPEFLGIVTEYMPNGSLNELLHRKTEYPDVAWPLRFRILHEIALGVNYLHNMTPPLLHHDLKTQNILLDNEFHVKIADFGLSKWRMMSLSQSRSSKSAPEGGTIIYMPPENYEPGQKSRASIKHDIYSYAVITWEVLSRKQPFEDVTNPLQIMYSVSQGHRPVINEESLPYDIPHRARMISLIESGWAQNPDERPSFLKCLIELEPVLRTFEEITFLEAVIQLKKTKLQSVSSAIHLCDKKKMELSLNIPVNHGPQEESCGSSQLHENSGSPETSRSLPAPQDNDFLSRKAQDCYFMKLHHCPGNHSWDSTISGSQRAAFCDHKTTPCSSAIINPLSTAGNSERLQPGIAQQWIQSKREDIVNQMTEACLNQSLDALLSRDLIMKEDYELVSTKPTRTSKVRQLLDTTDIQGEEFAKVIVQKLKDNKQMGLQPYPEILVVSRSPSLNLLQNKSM
Text: as §1, §2, §3, §4

SNF1LK [4] = molecular target: T4, SNF1LK (Homo sapiens, UniProt P57059); test: as above; assay type: cell-based; details: SNF1LK-EGFP in HeLa cells; dasatinib on magnetic substance; no reactive competitor
T4 construct: the ORF without the stop codon was amplified for each gene by PCR and then cloned into an expression vector; expressed in transfected cells; host or cells: HeLa
T4 sequence (P57059 whole entry): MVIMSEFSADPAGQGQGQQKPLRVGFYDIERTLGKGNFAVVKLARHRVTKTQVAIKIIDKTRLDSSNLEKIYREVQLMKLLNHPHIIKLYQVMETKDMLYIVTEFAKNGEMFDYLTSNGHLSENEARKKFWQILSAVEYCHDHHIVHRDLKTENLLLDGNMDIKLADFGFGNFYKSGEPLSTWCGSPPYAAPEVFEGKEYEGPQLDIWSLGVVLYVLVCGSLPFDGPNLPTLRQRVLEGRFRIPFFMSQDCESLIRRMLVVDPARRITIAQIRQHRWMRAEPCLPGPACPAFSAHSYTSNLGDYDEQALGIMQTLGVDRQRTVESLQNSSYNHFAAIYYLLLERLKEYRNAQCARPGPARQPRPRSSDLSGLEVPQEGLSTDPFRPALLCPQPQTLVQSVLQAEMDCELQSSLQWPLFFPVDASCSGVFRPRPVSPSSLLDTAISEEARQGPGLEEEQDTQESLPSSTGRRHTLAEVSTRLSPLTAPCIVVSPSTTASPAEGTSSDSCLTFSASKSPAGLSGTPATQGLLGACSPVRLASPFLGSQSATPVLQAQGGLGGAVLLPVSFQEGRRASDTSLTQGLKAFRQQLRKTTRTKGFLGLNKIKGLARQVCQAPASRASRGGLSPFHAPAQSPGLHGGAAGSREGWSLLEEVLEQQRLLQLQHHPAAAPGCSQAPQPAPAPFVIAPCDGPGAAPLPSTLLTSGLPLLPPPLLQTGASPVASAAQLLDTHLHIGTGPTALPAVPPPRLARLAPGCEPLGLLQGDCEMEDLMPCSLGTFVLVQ
Text: as §1, §2, §3

BLK [5] = molecular target: T1, BLK; test: Competition reaction with dasatinib-magnetic substance for EGFP-labelled kinase in cells; assay type: cell-based; details: BLK-EGFP in HeLa cells; 10 μM reactive competitor for 30 minutes to 2 hours
LYN [6] = molecular target: T2, LYN; test: as above; assay type: cell-based; details: LYN-EGFP in HeLa cells; 10 μM reactive competitor for 30 minutes to 2 hours
KIT = molecular target: T5, KIT (Homo sapiens, UniProt P10721); test: as above; assay type: cell-based; details: KIT-EGFP in HeLa cells; 10 μM reactive competitor for 30 minutes to 2 hours
T5 construct: only the region of the amino acids 545 to 976 was amplified by PCR; expressed in transfected cells; host or cells: HeLa
T5 sequence (P10721 545-976): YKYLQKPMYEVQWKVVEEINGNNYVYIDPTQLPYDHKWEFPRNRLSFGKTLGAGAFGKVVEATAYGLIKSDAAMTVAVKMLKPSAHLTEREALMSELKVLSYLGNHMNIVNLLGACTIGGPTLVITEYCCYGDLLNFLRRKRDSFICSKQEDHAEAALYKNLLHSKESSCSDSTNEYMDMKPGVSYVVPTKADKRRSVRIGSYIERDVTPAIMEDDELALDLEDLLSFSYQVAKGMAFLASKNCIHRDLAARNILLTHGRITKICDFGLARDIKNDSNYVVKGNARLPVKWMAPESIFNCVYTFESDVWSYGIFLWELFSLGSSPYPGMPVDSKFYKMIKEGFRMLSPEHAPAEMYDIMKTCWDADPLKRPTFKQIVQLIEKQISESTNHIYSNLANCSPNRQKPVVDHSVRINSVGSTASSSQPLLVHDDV

RIPK2 [7] = molecular target: T3, RIPK2; test: as above; assay type: cell-based; details: RIPK2-EGFP in HeLa cells; 10 μM reactive competitor for 30 minutes to 2 hours
SNF1LK [8] = molecular target: T4, SNF1LK; test: as above; assay type: cell-based; details: SNF1LK-EGFP in HeLa cells; 10 μM reactive competitor for 30 minutes to 2 hours
ABL2 [9] = test: as above; details: EGFP-ABL2 in HeLa cells; 10 μM reactive competitor for 30 minutes to 2 hours
CSK [10] = molecular target: T6, CSK (Homo sapiens, UniProt P41240); test: as above; details: CSK-EGFP in HeLa cells; 10 μM reactive competitor for 30 minutes to 2 hours
T6 sequence (P41240 whole entry): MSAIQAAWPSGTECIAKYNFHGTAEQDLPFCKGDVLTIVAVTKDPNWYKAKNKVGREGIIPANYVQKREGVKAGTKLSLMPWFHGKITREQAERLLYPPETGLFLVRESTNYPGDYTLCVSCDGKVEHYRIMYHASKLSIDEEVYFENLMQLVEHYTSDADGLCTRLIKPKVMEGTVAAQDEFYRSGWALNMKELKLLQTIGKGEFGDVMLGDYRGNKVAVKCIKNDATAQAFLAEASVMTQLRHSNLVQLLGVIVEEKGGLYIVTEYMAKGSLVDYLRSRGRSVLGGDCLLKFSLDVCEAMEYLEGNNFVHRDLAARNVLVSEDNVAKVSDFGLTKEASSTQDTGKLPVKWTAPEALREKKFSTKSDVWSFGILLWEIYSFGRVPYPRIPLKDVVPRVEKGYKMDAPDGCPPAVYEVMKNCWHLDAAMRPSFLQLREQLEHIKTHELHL

FGR [11] = molecular target: T7, FGR (Homo sapiens, UniProt P09769, G2A); test: as above; details: FGR-EGFP in HeLa cells; 10 μM reactive competitor for 30 minutes to 2 hours
MAPK14 [12] = molecular target: T8, MAPK14 (Homo sapiens, UniProt Q16539); test: as above; details: MAPK14-EGFP in HeLa cells; 10 μM reactive competitor for 30 minutes to 2 hours
T8 sequence (Q16539 1-360 isoform Q16539-2): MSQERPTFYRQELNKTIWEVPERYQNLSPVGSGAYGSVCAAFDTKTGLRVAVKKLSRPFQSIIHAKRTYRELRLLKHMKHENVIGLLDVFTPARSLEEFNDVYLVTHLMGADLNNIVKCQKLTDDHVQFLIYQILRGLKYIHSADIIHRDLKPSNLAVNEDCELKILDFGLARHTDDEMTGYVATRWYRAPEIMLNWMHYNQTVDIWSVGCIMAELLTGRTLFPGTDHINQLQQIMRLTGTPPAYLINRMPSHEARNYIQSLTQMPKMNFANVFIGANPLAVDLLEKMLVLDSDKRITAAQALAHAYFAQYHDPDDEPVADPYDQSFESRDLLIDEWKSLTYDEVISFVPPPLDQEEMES

ABL2 [13] = test: Binding of dasatinib-magnetic substance to EGFP-labelled kinase in cells (magnetic pattern co-localization); details: EGFP-ABL2 in HeLa cells; dasatinib-biotin coated on streptavidin magnetic substance; magnetic field
CSK [14] = molecular target: T6, CSK; test: as above; details: CSK-EGFP in HeLa cells; dasatinib-biotin coated on streptavidin magnetic substance; magnetic field
FGR [15] = molecular target: T7, FGR; test: as above; details: FGR-EGFP (G2A) in HeLa cells; dasatinib-biotin coated on streptavidin magnetic substance; magnetic field
MAPK14 [16] = molecular target: T8, MAPK14; test: as above; details: MAPK14-EGFP in HeLa cells; dasatinib on magnetic substance; no reactive competitor

| Structure (SMILES) | fluorescent pattern of kinase-EGFP overlapped with magnetization pattern (binding) (BLK [1]) | fluorescent pattern of kinase-EGFP overlapped with magnetization pattern (binding) (LYN [2]) | fluorescent pattern of kinase-EGFP overlapped with magnetization pattern (binding) (RIPK2 [3]) | fluorescent pattern of kinase-EGFP overlapped with magnetization pattern (binding) (SNF1LK [4]) | competition with dasatinib-magnetic substance: fluorescent pattern overlapped with magnetization pattern (BLK [5]) | competition with dasatinib-magnetic substance: fluorescent pattern overlapped with magnetization pattern (LYN [6]) | competition with dasatinib-magnetic substance: fluorescent pattern overlapped with magnetization pattern (KIT) | competition with dasatinib-magnetic substance: fluorescent pattern overlapped with magnetization pattern (RIPK2 [7]) | competition with dasatinib-magnetic substance: fluorescent pattern overlapped with magnetization pattern (SNF1LK [8]) | competition with dasatinib-magnetic substance: fluorescent pattern overlapped with magnetization pattern (ABL2 [9]) | competition with dasatinib-magnetic substance: fluorescent pattern overlapped with magnetization pattern (CSK [10]) | competition with dasatinib-magnetic substance: fluorescent pattern overlapped with magnetization pattern (FGR [11]) | competition with dasatinib-magnetic substance: fluorescent pattern overlapped with magnetization pattern (MAPK14 [12]) | fluorescent pattern of kinase-EGFP overlapped with magnetization pattern (binding) (ABL2 [13]) | fluorescent pattern of kinase-EGFP overlapped with magnetization pattern (binding) (CSK [14]) | fluorescent pattern of kinase-EGFP overlapped with magnetization pattern (binding) (FGR [15]) | fluorescent pattern of kinase-EGFP overlapped with magnetization pattern (binding) (MAPK14 [16]) |
| --- | --- | --- | --- | --- | --- | --- | --- | --- | --- | --- | --- | --- | --- | --- | --- | --- | --- |
| Cc1nc(Nc2ncc(C(=O)Nc3c(C)cccc3Cl)s2)cc(N2CCN(CCO)CC2)n1 [dasatinib, N-(2-chloro-6-methyl-phenyl)-2-(6-(4-(2-hydroxyethyl)-piperazin-1-yl)-2-methylpyrimidin-4-ylamino)thiazole-5-carboxamide] | showed the fluorescent patterns aligned in a magnetized direction | showed the fluorescent patterns aligned in a magnetized direction | showed the fluorescent patterns aligned in a magnetized direction | interacted | fluorescent pattern overlapped with an induced magnetization pattern of the magnetic substances was not observed | fluorescent pattern overlapped with an induced magnetization pattern of the magnetic substances was not observed | fluorescent pattern overlapped with an induced magnetization pattern of the magnetic substances was not observed | fluorescent pattern overlapped with an induced magnetization pattern of the magnetic substances was not observed | fluorescent pattern overlapped with an induced magnetization pattern of the magnetic substances was not observed | fluorescent pattern overlapped with an induced magnetization pattern of the magnetic substances was not observed | fluorescent pattern overlapped with an induced magnetization pattern of the magnetic substances was not observed | fluorescent pattern overlapped with an induced magnetization pattern of the magnetic substances was not observed | fluorescent pattern overlapped with an induced magnetization pattern of the magnetic substances was not observed | showed the fluorescent patterns aligned in a magnetized direction | showed the fluorescent patterns aligned in a magnetized direction | showed the fluorescent patterns aligned in a magnetized direction | interacted |
| Cc1ccc(NC(=O)c2ccc(CN3CCN(C)CC3)cc2)cc1Nc1nccc(-c2cccnc2)n1 [imatinib] |  |  |  |  |  |  | interacts |  |  |  |  |  |  |  |  |  |  |
